In patent US20210113522A1, “COUMARIN DERIVATIVE AS ANTI-ASTHMATIC AGENT, PHARMACEUTICAL COMPOSITION THEREOF, ITS PREPARATION AND USE” (I-NOVA MEDICINSKA ISTRAZIVANJA D.O.O., priority 2017, published 2021):

What was measured:
[1] = test system: OVA-induced airway inflammation; assay: OVA model of lung eosinophilia: differential cell count of bronchoalveolar lavage (BAL) cells; type: in vivo, Balb/c mice; settings: vs PBS-treated OVA mice; 1 2 mg/kg preventively or therapeutically, beclomethasone 1 mg/kg, via the airway
Description: The study was performed on female 8-week old Balb/c mice. The animals were kept under specific-pathogen-free (SPF) conditions with temperature control and HEPA system for breeding of laboratory animals. Experiments were performed during the light phase of the cycle. 40 mice (n=10/group) were separated into 4 groups:
Group 1: OVA only Group 2: OVA+BECLOMETHASONE (1 mg/kg) Group 3: OVA+Compound 1 (preventively; 2 mg/kg) Group 4: OVA+Compound 1 (therapeutically; 2 mg/kg)
Each group of mice was sensitized on days 0 and 14 with 20 μg/mouse of OVA adsorbed on 2 mg alum. On days 20, 21 and 22 the animals were stimulated with 100 μg/mouse OVA intranasally in a final volume of 50 μL/mouse.
The first group (the positive control) was injected with 0.1 M phosphate-buffered saline (PBS) only.
The second and third groups were treated preventively with compound 1 (2 mg/kg) or beclomethasone (1 mg/kg) on days 18-22 via the airway.
The fourth group was treated therapeutically with compound 1 (2 mg/kg) on days 23-25 via the airway.
We examined the effect of compound 1 treatment in the cell response on OVA-induced airway inflammation. OVA (100 μg/50 μL of PBS) was introduced intranasally (i.n.) 6 days after the second intraperitoneal (i.p.) sensitization with OVA. The treatment with compound 1 (preventively and therapeutically), beclomethasone or PBS only was performed according the treatment schedule; see FIG. 2.
Two days after the last i.n. challenge, BAL cells were collected, and differential cell counts were performed to identify the number of various infiltrating inflammatory cells, see FIGS. 3A, 3B.
Female 8-week old Balb/c mice were obtained from Harlan Farm (Blackthorn, UK). The animals were kept under specific-pathogen-free (SPF) conditions with temperature control and HEPA system for breeding of laboratory animals. The manipulations were approved by the Animal Care Commission at the Institute of Microbiology in accordance with the International regulations (EU Directive 2010/63/EU).
Experiments were performed during the light phase of the cycle. The animals were allowed to adapt to the laboratory for at least 1 h before testing and were used only once. 40 mice (n=10/group) were separated into 4 groups:
Group 1: OVA only Group 2: OVA+beclomethasone (1 mg/kg) Group 3: OVA+compound 1 (preventively; 2 mg/kg) Group 4: OVA+compound 1 (therapeutically; 2 mg/kg)
The experimental procedure was carried out as described in literature reference 22. The procedure is as follows: • (1) using scissors, a small incision in the neck skin on the trachea was made and the skin upwards was opened to expose the salivary glands; the trachea was exposed; • (2) a small semi-excision of the trachea was made to allow a 21-G lavage tube to pass into the trachea; • (3) collection of the lavage fluid—0.5 mL of sterile PBS was injected into the lung. The saline from the first lavage was aspirate; the procedure was repeated 5 times; • (4) all lavages were pooled and were centrifuge for 5 min. at 300×g/4° C. to pellet the cells; the supernatant was discarded; • (5) the pellet was re-suspended in 1.5 mL ice cold PBS and centrifuge for 5 min. at 300×g/4° C.; the supernatant was discarded; • (6) the pellet was re-suspended in 1.0 mL ice cold PBS and the cells were counted; • (7) 50 000 cells were placed on the slide for cytospin; • (8) the cytrospin was performed for 10 min at 700 rpm; and • (9) the slides were air-dried and proceeded to cell staining.
(§1) • (1) fix in Solution A (fixative); • (2) dip 5 times in Solution C (red); • (3) dip 5 times in Solution B (blue); • (4) rinse the slides in distilled water; • (5) air-drying of the slides; • (6) mounted the cover slides; and then • (7) 400 cells were counted under light microscopy. Histology Staining was then Performed as Follows: The lungs from all animals were fixed in 10% formalin (pH 7.4). […]

[2] = test system: OVA-induced airway inflammation; assay: OVA model: lung histology (haematoxylin/eosin); type: in vivo, Balb/c mice; settings: OVA-challenged mice; 1 2 mg/kg preventively or therapeutically, beclomethasone 1 mg/kg
Description: Lungs from the Balb/c mice from the test-groups were isolated and fixed in 10% formalin with […] of the same solution introduced intratracheally prior the overnight fixation. Paraffin sections from the lungs were analyzed using a standard haematoxylin/eosin staining technique.
as §1, with “7.4). Once fixed, tissue is processed as follows: • (1) 70% ethanol for 1 hour; • (2) 80% ethanol for 1 hour; • (3) 95% ethanol for 1 hour; • (4) first absolute ethanol for 1 hour; • (5) second absolute ethanol 1 hour; • (6) first clearing agent (xylene) for 1 hour; • (7) second clearing agent (xylene) for 1 hour; • (8) first wax at 58° C. for 1 hour; • (9) second wax at 58° C. for 1 hour; and • (10) embedding tissues in paraffin blocks. Tissues were sectioned using a microtome at 5 μm slices.” for “7.4).”

SMILES	Eosinophil infiltration into the lungs (BAL) [1]	Lymphocyte infiltration (BAL) [1]	Macrophages infiltration (BAL) [1]	Neutrophil infiltration (BAL) [1]	Eosinophil and other inflammatory cell infiltration in lung histology [2]
O=c1oc2cc(O)cc(O)c2c(O)c1-c1coc2c1c(=O)oc1cc(O)cc(O)c12 [Compound 1, 7,9-dihydroxy-3-(4,5,7-trihydroxy-2-oxo-2H-chromene-3-yl)-4H-furo[3,2-c]chromen-4-one]	strongly suppressed	stimulate	stimulate	stimulate	not observed
C[C@H]1C[C@H]2[C@@H]3CCC4=CC(=O)C=C[C@]4(C)[C@@]3(Cl)[C@@H](O)C[C@]2(C)[C@@]1(O)C(=O)CO [beclomethasone, reference compound]	suppressed	induced moderate	induced moderate	suppressed	not observed
